Series [1] has as its system Plasma. Kind of series: Anticoagulant activity in mouse platelet-poor plasma assessed as increase in prothrombin time at 3.8 to 210 ug/ml incubated for 3 mins by coagulometer analysis. The following applies: dose 3.8-210 µg/ml. Type of series: functional, cell-free.
A short description of series [2]: Acute toxicity in ICR mouse assessed as histological change in lung at 50 to 100 mg/kg, iv as single dose for 14 days by H and E staining method. Type of series: organism-based. The following applies: in vivo, 336 h, dose 50-100 mg/kg, time 14 day.
The nature of series [3]: Acute toxicity in ICR male mouse assessed as effect on weight loss at 50 to 100 mg/kg, iv as single dose for 14 days. Type of series: organism-based. The settings on record: in vivo, 336 h, dose 50-100 mg/kg, time 14 day.
Series [4] can be described thus: Acute toxicity in ICR mouse assessed as histological change in kidney at 50 to 100 mg/kg, iv as single dose for 14 days by H and E staining method. Type of series: organism-based. The settings on record: in vivo, 336 h, dose 50-100 mg/kg, time 14 day.
For series [5], the system named is Plasma. In words: Anticoagulant activity in mouse platelet-poor plasma assessed as increase in activated partial thromboplastin time at 22 ug/ml incubated for 3 mins by coagulometer analysis. Type of series: functional, cell-free. The settings on record: dose 22.0 µg/ml.
A short description of series [6]: Half life in Sprague-Dawley rat at 10 mg/kg, iv after 0.083 to 24 hrs by LC-MS/MS analysis. Type of series: ADME, organism-based. The following applies: in vivo, time 0.083-24 hrs.
Series [7] in a line: Cmax in Sprague-Dawley rat at 10 mg/kg, iv after 0.083 to 24 hrs by LC-MS/MS analysis. Type of series: ADME, organism-based. The arrangement: route intravenous, dose 10 mg/kg, time upper 24 hrs, time lower 0.083 hrs. The following applies: in vivo.
For a further series, the species on record is Homo sapiens. Kind of series: Selectivity index, ratio of IC50 for coagulation factor XIIa (unknown origin) to IC50 for coagulation factor XIa (unknown origin).
Series [8] can be described thus: Acute toxicity in ICR mouse assessed as histological change in spleen at 50 to 100 mg/kg, iv as single dose for 14 days by H and E staining method. Type of series: organism-based. The following applies: in vivo, 336 h, dose 50-100 mg/kg, time 14 day.
Series [9] addresses T1, Coagulation factor VII (Homo sapiens) (UniProt P08709).
T1 sequence (whole entry): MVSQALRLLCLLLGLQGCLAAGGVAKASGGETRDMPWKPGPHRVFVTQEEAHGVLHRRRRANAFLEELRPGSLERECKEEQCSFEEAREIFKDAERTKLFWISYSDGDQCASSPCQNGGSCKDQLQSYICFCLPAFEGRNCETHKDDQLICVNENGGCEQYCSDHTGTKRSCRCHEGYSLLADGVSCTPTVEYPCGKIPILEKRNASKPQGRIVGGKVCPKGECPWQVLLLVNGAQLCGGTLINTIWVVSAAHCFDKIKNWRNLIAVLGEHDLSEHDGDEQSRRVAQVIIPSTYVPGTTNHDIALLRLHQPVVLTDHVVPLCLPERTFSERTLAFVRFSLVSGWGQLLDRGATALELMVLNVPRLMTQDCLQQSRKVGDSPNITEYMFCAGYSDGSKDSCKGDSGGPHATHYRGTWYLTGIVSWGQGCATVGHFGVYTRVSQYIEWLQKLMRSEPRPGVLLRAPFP
Kind of series: Inhibition of coagulation factor VIIa (unknown origin) assessed as chromogenic substrate using chromozyme t-PA as substrate at 1 mM incubated for 1 hr by spectrophotometer based microplate reader method.

Active and inactive are the calls of the source.

By half-life is commonly meant the time needed for the level to fall by half in the phase considered. A higher half-life goes with slow decline. By Cmax is commonly meant the peak of the concentration-time curve. Regarding `O=C(/C=C/c1cc(Cl)ccc1-n1cnnn1)N[C@@H](CC(=O)N1CCN(c2ccccc2)CC1)C(=O)Nc1ccc(C(=O)O)cc1`, in the series on Plasma [1], the result was inactive. Besides, the Activity entry in [2], in series [3], in series [4] and in series [8] was “Non-Toxic” each time. For the same molecule, the result in the series on Plasma [5] was Active. In addition, the half-life in series [6] is 1.26 h. In addition, the Cmax in series [7] was 57 µg/mL. Moreover, in the series listed under Homo sapiens, the Ratio IC50 was greater than 5000. Further, the inhibition entry in series [9] is “inactive”.

Source of the values: ChEMBL document CHEMBL5046289, “Targeting the S2 Subsite Enables the Structure-Based Discovery of Novel Highly Selective Factor XIa Inhibitors” (J Med Chem, 2022).
